Reference: patent US20220073536A1 (Rigel Pharmaceuticals, Inc., priority 2003, published 2022)
pIC50: −log10 of the molar value. Where a name gives a salt, the structure may show the parent alone. Read-outs that look alike come from different tables or passages of the source. Blank lines part the entries; values can stand above or below the compound they belong to.

System: cultured human mast cells (CHMC)
Experiment: CHMC low cell density IgE activation: tryptase assay
Format: cell-based
Summary of the method: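 CHMC were seeded at 1000–1500 cells/well in MT buffer and incubated 1 hr at 37 °C. They were then stimulated with anti-IgE for 30 min at 37 °C, with unstimulated wells as controls. Released tryptase in the supernatant was measured with a fluorogenic substrate after 30 min at room temperature.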

[1] = Homo sapiens, Mast cell, low cell density CHMC, IgE activation, tryptase, 8 pt, read-out: LD Tryptase, CHMC, IgE, 8 pt
[2] = Homo sapiens, Mast cell, low cell density CHMC, IgE activation, tryptase, 3 pt, read-out: LD Tryptase, CHMC, IgE, 3 pt
[3] = Homo sapiens, Mast cell, low cell density, IgE activation, 3 pt, read-out: LD Tryptase, CHMC, IgE, 3 pt
[4] = low cell density CHMC, IgE activation, tryptase release, 8 point, read-out: LD Tryptase, CHMC, IgE, 8 pt
[5] = Homo sapiens, Mast cell, low cell density CHMC, IgE activation, tryptase release, 8 pt, read-out: LD Tryptase, CHMC, IgE, 8 pt
[6] = Homo sapiens, Mast cell, low cell density CHMC, IgE activation, tryptase release, 3 pt, read-out: LD Tryptase, CHMC, IgE, 3 pt
[7] = low cell density CHMC, IgE activation, tryptase release, 3 point, read-out: LD Tryptase, CHMC, IgE, 3 pt
[8] = low cell density CHMC, IgE activation, tryptase release, 8 pt, read-out: LD Tryptase, CHMC, IgE, 8 pt
[9] = low cell density CHMC, IgE activation, tryptase, 3 pt, read-out: LD Tryptase, CHMC, IgE, 3 pt

pIC50 [1]: > 5.00
Compound: CC1(C)Oc2ccc(Nc3nc(Nc4ccc5c(cnn5CC5CCC5)c4)ncc3F)cc2NC1=O [Compound 728, N2-[1-(Cyclobutylmethyl)indazol-5-yl]-N4-(2,2-dimethyl-3-oxo-4H-benz[1,4]oxazin-6-yl)-5-fluoro-2,4-pyrimidinediamine]

pIC50 [2]: < 5.00
Compound: Cc1cc(N2CCN(C)CC2)ncc1Nc1ncc(F)c(NC(C)C)n1 [Compound 1248]

pIC50 [3]: > 5.00 | pIC50 (Homo sapiens, Mast cell, low cell density, IgE activation, 8 pt, read-out: LD Tryptase, CHMC, IgE, 8 pt): > 5.00
Compound: CCN(CC)Cc1nc2cc(Nc3ncc(F)c(Nc4ccc5c(c4)NC(=O)C(C)(C)O5)n3)ccc2n1C [Compound 972]

pIC50 [4]: > 5.00
Compound: CNC(=O)Cn1ccc2cc(Nc3ncc(F)c(Nc4ccc(OCCO)nc4)n3)ccc21 [Compound 650, 5-Fluoro-N4-[2-(2-hydroxyethyleneoxy)pyrid-5-yl]-N2-[1-(N-methylamino)carbonylmethyleneindol-5-yl]-2,4-pyrimidinediamine]

pIC50 [5]: > 5.00
Compound: CC(=O)NCCCn1ncc2cc(Nc3ncc(F)c(Nc4ccc5c(n4)NC(=O)C(C)(C)O5)n3)ccc21 [Compound 822, N2-[1-[3-(N-Acetylamino)propyl]indazol-5-yl]-N4-(2,2-dimethyl-3-oxo-4H-5-pyrid[1,4]oxazin-6-yl)-5-fluoro-2,4-pyrimidinediamine]

pIC50 [5]: > 5.00
Compound: COc1ccc(Nc2nc(Nc3ccc4c(cnn4CCCNC(=O)C(C)(C)C)c3)ncc2F)cc1Cl [Compound 848, N4-(3-Chloro-4-methoxyphenyl)-5-fluoro-N2-[1-(3-pivalamidopropyl)indazol-5-yl]-2,4-pyrimidinediamine]

pIC50 [1]: > 5.00
Compound: CCCCn1ncc2ccc(Nc3ncc(F)c(Nc4ccc(OC)c(Cl)c4)n3)cc21 [Compound 714, N2-(1-n-Butylindazol-6-yl)-N4-(3-chloro-4-methoxyphenyl)-5-fluoro-2,4-pyrimidinediamine]

pIC50 [6]: > 5.00
Compound: COc1cc(Nc2nc(Nc3cc(C)cc(C)c3)ncc2F)cc(C(F)(F)F)c1 [Compound 331]

pIC50 [3]: > 5.00
Compound: COc1ccc(Nc2nc(Nc3ccc4c(c3)nc(C(F)(F)F)n4CCCO)ncc2F)cc1Cl [Compound 938]

pIC50 [2]: > 5.00
Compound: COc1cc(Nc2nc(Nc3cc(OC)c(Cl)cc3OC)ncc2F)cc(OC)c1 [Compound 380]

pIC50 [7]: > 5.00 | pIC50 [4]: > 5.00
Compound: CNC(=O)COc1c(C)cc(Nc2ncc(F)c(Nc3ccc(OC)c(Cl)c3)n2)cc1C [Compound 571, N4-(3-Chloro-4-methoxyphenyl)-N2-[3,5-dimethyl-4-(N-methylamino)carbonylmethyleneoxyphenyl]-5-fluoro-2,4-pyrimidinediamine]

pIC50 (low cell density CHMC, IgE activation, tryptase readout, 8 pt, read-out: LD Tryptase, CHMC, IgE, 8 pt): > 5.00
Compound: CNC(=O)COc1cccc(Nc2ncc(F)c(Nc3ccc4c(n3)NC(=O)C(C)(C)O4)n2)c1C [Compound 1079, N4-(2,2-Dimethyl-3-oxo-4H-5-pyrid [1,4]oxazin-6-yl)-5-fluoro-N2-[2-methyl-3-(N-methylamino)carbonylmethyleneoxyphenyl]-2,4-pyrimidinediamine]

pIC50 [8]: > 5.00
Compound: CCOP(=O)(NCCCn1ncc2cc(Nc3ncc(F)c(Nc4ccc(OC)c(Cl)c4)n3)ccc21)OCC [Compound 847, N4-(3-Chloro-4-methoxyphenyl)-N2-[1-(3-(diethylphosphonamido)propyl]indazol-5-yl]-5-fluoro-2,4-pyrimidinediamine]

pIC50 [9]: > 5.00
Compound: COc1cc(Nc2ncc(F)c(Nc3ccc4c(c3)OC(F)(F)C(F)(F)O4)n2)cc(C(F)(F)F)c1 [Compound 361]

pIC50 [9]: > 5.00
Compound: COc1cc(Nc2ncc(F)c(NCC3COc4ccccc4O3)n2)cc(OC)c1 (stereo not drawn) [Compound 1258, N4-[ (2,3-Dihydro-1,4-benzodioxan-2-yl)methyl]-N2-(3,5-dimethoxyphenyl)-5-fluoro-2,4-pyrimidinediamine]

pIC50 [2]: > 5.00
Compound: CN1CCN(c2ccc(Nc3ncc(F)c(NC(C)(C)C)n3)cc2C(F)(F)F)CC1 [Compound 1233]

pIC50 [1]: > 5.00
Compound: CCCn1ncc2cc(Nc3ncc(F)c(Nc4ccc(OC)c(Cl)c4)n3)ccc21 [Compound 702, N4-(3-Chloro-4-methoxyphenyl)-5-fluoro-N2-(1-n-propylindazol-5-yl)-2,4-pyrimidinediamine]

pIC50 [6]: > 5.00
Compound: COc1cc(Nc2nc(Nc3cc(C)c(O)c(Cl)c3)ncc2F)cc(C(F)(F)F)c1 [Compound 336, N2-(3-Chloro-4-hydroxy-5-methylphenyl)-5-fluoro-N4-(3-methoxy-5-trifluoromethylphenyl)-2,4-pyrimidinediamine]

pIC50 [8]: > 5.00
Compound: CC1(C)Oc2ccc(Nc3nc(Nc4ccc5c(cnn5CCCN5C(=O)c6ccccc6C5=O)c4)ncc3F)cc2NC1=O [Compound 817, N4-(2,2-Dimethyl-3-oxo-4H-benz[1,4]oxazin-6-yl)-5-fluoro-N2-[1-[3-(N-phthalimidopropyl)]indazol-5-yl]-2,4-pyrimidinediamine]

pIC50 [7]: > 5.00 | pIC50 [4]: > 5.00
Compound: CNC(=O)COc1c(C)cc(Nc2ncc(F)c(Nc3cc(OC)cc(OC)c3)n2)cc1C [Compound 573, N4-(3,5-Dimethoxyphenyl)-N2-[3,5-dimethyl-4-(N-methylamino)carbonylmethyleneoxyphenyl]-5-fluoro-2,4-pyrimidinediamine]

pIC50 (low cell density, IgE activation, 8 pt, read-out: LD Tryptase, CHMC, IgE, 8 pt): > 5.00
Compound: COc1ccc(Nc2nc(Nc3ccc4[nH]c(N5CCOCC5)nc4c3)ncc2F)cc1Cl [Compound 978, N4-(3-Chloro-4-methoxyphenyl)-5-fluoro-N2-[2-(4-morpholino)-1H-benzimidazol-5-yl]-2,4-pyrimidinediamine]

pIC50 (low cell density CHMC, IgE activation, tryptase release, 3 pt, read-out: LD Tryptase, CHMC, IgE, 3 pt): > 5.00 | pIC50 [8]: > 5.00
Compound: COc1ccc(Nc2ncc(F)c(Nc3ccc4c(c3)NC(=O)C(C)(C)S4)n2)cc1F [Compound 299]

pIC50 [1]: < 5.00
Compound: Cc1cc(C)cc(Nc2ncc(F)c(Nc3nc(N)n[nH]3)n2)c1 [Compound 1252]

pIC50 [5]: > 5.00
Compound: O=C1CS(=O)(=O)c2ccc(Nc3nc(Nc4cccc(O)c4)ncc3F)cc2N1 [Compound 308]

pIC50 [2]: < 5.00
Compound: CN1CCN(c2ccc(Nc3ncc(F)c(NC4CC(C)(C)N(C)C(C)(C)C4)n3)cc2C(F)(F)F)CC1 [Compound 1224]

pIC50 [1]: > 5.00
Compound: Fc1cnc(Nc2cc(Cl)cc(Cl)c2)nc1Nc1ccc2c(c1)OCCO2 [Compound 354]

pIC50 [3]: > 5.00
Compound: COc1ccc(Nc2nc(Nc3ccc4c(c3)NC(=O)C(C)(C)O4)ncc2F)nc1Cl [Compound 889]

pIC50 [4]: > 5.00
Compound: CNC(=O)Cn1ccc2cc(Nc3ncc(F)c(Nc4ccc(Cl)c(OC)c4)n3)ccc21 [Compound 653, N4-(4-Chloro-3-methoxyphenyl)-5-fluoro-N2-[1-(N-methylamino)carbonylmethyleneindol-5-yl]-2,4-pyrimidinediamine]

pIC50 [5]: > 5.00
Compound: COc1cc(Nc2ncc(F)c(Nc3ccc4c(c3)NC(=O)C(C)(C)S4(=O)=O)n2)cc(OC)c1 [Compound 267]

pIC50 [2]: > 5.00
Compound: COc1cc(Nc2nc(Nc3ccc4c(cnn4C4CCCCC4)c3)ncc2F)ccc1F [Compound 745, N2-(1-Cyclohexylindazol-5-yl)-5-fluoro-N4-(4-fluoro-3-methoxyphenyl)-2,4-pyrimidinediamine]

pIC50 [8]: > 5.00
Compound: CNC(=O)COc1cccc(Nc2ncc(F)c(Nc3ccc4c(c3)NC(=O)C(C)S4)n2)c1 (stereo not drawn) [Compound 279, 5-Fluoro-N2-[3-(N-methylamino)carbonylmethyleneoxyphenyl]-N4-(2-methyl-3-oxo-2H,4H-benzo[1,4]thiazin-6-yl)-2,4-pyrimidinediamine]

Compound: Fc1cnc(Nc2ccc3[nH]c(C(F)(F)F)nc3c2)nc1Nc1ccc(Cl)c(Cl)c1 [Compound 864, N4-(3,4-Dichlorophenyl)-5-fluoro-N2-(2-trifluoromethyl-1H-benzimidazol-5-yl)-2,4-pyrimidinediamine Ethanesulfonic Acid Salt]
pIC50 (Homo sapiens, Mast cell, read-out: LD Tryptase, CHMC, IgE, 3 pt): < 5.00
